# What was measured:
# Type in all cases: functional
# Mus musculus [1] = assay: In vivo inhibition of AChE in po dosed mouse brain relative to control
# Rattus norvegicus [2] = assay: In vivo inhibition of AChE in po dosed rat brain relative to control
# Oryctolagus cuniculus [3] = assay: In vivo inhibition of AChE in po dosed rabbit brain relative to control
# Mus musculus [4] = assay: In vivo inhibition of MAO-B in po dosed mouse brain relative to control
# Rattus norvegicus [5] = assay: In vivo inhibition of MAO-B in po dosed rat brain relative to control
# Oryctolagus cuniculus [6] = assay: In vivo inhibition of MAO-B in po dosed rabbit brain relative to control
smiles,measurement,setting,value
C#CCN[C@@H]1CCc2ccc(OC(=O)N(C)CC)cc21 [LADOSTIGIL],inhibition (INH),Mus musculus [1],25 - 40%
same,inhibition (INH),Rattus norvegicus [2],25 - 40%
same,inhibition (INH),Oryctolagus cuniculus [3],25 - 40%
same,inhibition (INH),Mus musculus [4],70 - 90%
same,inhibition (INH),Rattus norvegicus [5],70 - 90%
same,inhibition (INH),Oryctolagus cuniculus [6],70 - 90%

# Source: ChEMBL document CHEMBL4354793, “Current and emerging therapeutic targets of alzheimer's disease for the design of multi-target directed ligands” (Medchemcomm, 2019)
